Assay results as given in patent US20240335395A1, “COMPOSITIONS AND METHODS FOR PREVENTING AND/OR TREATING DISEASE ASSOCIATED WITH IL-23 EXPRESSION” (ALLSPIM, priority 2021, published 2024).

Columns and labels:
[1] = tested on: IL-23; test: IL-23 production (ELISA of supernatant) in LPS-stimulated THP-1 cell culture, Examples 1 and 8; type: cell-based, human
Procedure: The THP-1 cell line (TIB-202) was obtained from the American Type Culture Collection (ATCC, USA), grown in RPMI 1640 culture medium (Gibco) supplemented with 10% fetal bovine serum (Gibco, UK), 50 U/mL penicillin-streptomycin (Gibco), and 0.05 mM 2-Mercaptoethanol (Gibco). Cultured cells were plated into culture plates in appropriate volumes with a cell density of 500,000 cells/mL.
PCR was performed in duplicate using SYBR Green qPCR master mix (Takara Biomedical Technology Co., Ltd, Dalian, China) on an ABI 7500 Real-Time PCR System (Thermo, USA). The cycling program was as follows: denaturation at 95° C. for 15 s, 40 cycles of 95° C. for 15 s and extension at 60° C. for 60 s, followed by melt curve generation. The ΔΔCT method was used to quantify relative mRNA levels as described in User Bulletin #2 for the ABI PRISM 7700 Sequence Detection System (Applied Biosystems, 2001). The primer sequences used in this study are 5′-[…]-3′ (forward), 5′-[…]-3′ (reverse) for human IL-23p19 (SEQ ID NOs: 4 and 5, respectively); and 5′-ACAGTCCATGCCATCACTG-3′ (forward) and 5′-AGTAGAGGCAGGGATGATG-3′ for human GAPDH as a reference (SEQ ID NOs: 6 and 7, respectively). 24 hours after culture and treatments, supernatants were collected and IL-23 levels measured using the IL-23 Human Uncoated ELISA Kit (ThermoFisher Scientific Inc., USA) according to the manufacturer's instructions. A Varioskan LUX microplate reader (Thermo Fisher, USA) was used for the assay and 4-parameter logistic regression was used for data analysis. Two duplicates per sample were performed and results were averaged.
The anti-IL-23 activity of 2,4-D was compared with the commercially prescribed nonsteroidal anti-inflammatory drugs (NSAIDs:[…], Ibuprofen, and Aspirin) in the LPS-stimulated THP-1 cell culture system described above (Example 1)).

[2] = tested on: TNF-alpha; test: MSU-induced TNF-alpha in knee joint tissue (multiplex microassay); type: in vivo, mouse; details: 2,4-D 100 mg/kg, CLC 1 mg/kg, DEX 0.5 mg/kg
Procedure: (§1) Mice (six per group) were treated with 2,4-D (100 mg/kg or 20 mg/kg, i.p.), CLC (1 mg/kg or 0.2 mg/kg, i.p.), DEX (0.5 mg/kg or 0.1 mg/kg, i.p.), or vehicle (20% polyoxyethylenesorbitan monooleate (Tween 80) plus PBS) 30 min before intra-articular stimulus with MSU (100 μg/10 μL, i.a.). Six mice with intra-articular injection with PBS alone served as a negative control.
(§2) Induction of MSU-Induced Knee Joint Inflammation. Male ICR (CD-1) mice (35-45 g, 10-12 weeks) were purchased from VitalRiver Inc (Beijing, China) and were kept in an animal care facility under controlled temperature of 21±1° C., humidity, and on a light/dark cycle, with ad libitum access to water and standard laboratory chow diet. Animal care and handling procedures were approved by the Animal Ethics Committee of GZUCM (Guangzhou University of Chinese Medicine). All efforts were made to minimize animal suffering and to reduce the number of animals used. Joint inflammation was induced by the intra-articular (i.a.) administration of MSU (200 μg/20 μl) into the right and left knee joints of mice under inhaled 3% isoflurane anesthesia. Control animals received an injection (i.a.) of sterile PBS (20 μL).
(§3) Cytokine Measurement. Mice were anesthetized and sacrificed. Knee joints were collected and frozen in liquid nitrogen. Samples were then homogenized in 500 μl of buffer containing protease inhibitors, centrifuged (3600 rpm, 4° C., 15 min) and supernatants were used to determine Th1/Th2/Th17 cytokine levels using a multiplex microassay (Qantibody® mouse TH17 Array 1 kit, Cat. No.: QAM-TH17-1; RayBiotech, Norcross, GA). Results were expressed as picograms (pg) of cytokine/mg of tissue.
(§4) Statistical Analysis. […] For in vitro experiments, microassays were performed in quadruplicate. p<0.05 was considered significant (*p<0.05, **p<0.01, ***p<0.001).

[3] = tested on: MSU-induced leukocyte recruitment; test: MSU-induced leukocyte recruitment to the synovial cavity of knee joint; type: in vivo, mouse; details: 20 h; 2,4-D 100 mg/kg, CLC 1 mg/kg, DEX 0.5 mg/kg
Procedure: as §1, with “2,4-D, isolated and purified from Chloranthus spicatus (purity≥98%), was purchased from BOC Science (Shirley, NY). Colchicine (CLC) (purity≥96%) and dexamethasone (DEX) (purity≥98%) were purchased from Sigma. Mice” for “Mice”
as §2
Histopathological Analysis. Knee joint was collected 20 h after MSU injection, fixed with 10% paraformaldehyde in PBS, and then decalcified for 10 days with EDTA and embedded in paraffin for histological analysis. […] Results are expressed as leukocytes infiltrate (cell/field) counted at the inflammatory foci within synovial cavity as indicative of synovitis. […]
Statistical Analysis. Data were analyzed using GraphPad Prism statistical software (GraphPad Software, Inc., United States-500.288, version 5.0). Results are presented as means±SEM or SD of measurements made on 6 mice per group, with statistical significance determined by two-way ANOVA, comparing each group to the control (“Model”) group. […]

[4] = tested on: IL-1ß; test: MSU-induced IL-1ß in knee joint tissue (multiplex microassay); type: in vivo, mouse; details: 2,4-D 100 mg/kg, CLC 1 mg/kg, DEX 0.5 mg/kg
Procedure: as §1, §2, §3, §4

[5] = tested on: IL-10; test: MSU-induced IL-10 in knee joint tissue (multiplex microassay); type: in vivo, mouse; details: CLC 1 mg/kg
Procedure: as §1, §2, §3, §4

[6] = tested on: IL-6; test: MSU-induced IL-6 in knee joint tissue (multiplex microassay); type: in vivo, mouse; details: 2,4-D 100 mg/kg, CLC 1 mg/kg, DEX 0.5 mg/kg
Procedure: as §1, §2, §3, §4

[7] = tested on: MSU-induced knee joint edema; test: MSU-induced knee joint edema in mice; type: in vivo, mouse; details: 20 h; high dose i.p.: 2,4-D 100 mg/kg, CLC 1 mg/kg, DEX 0.5 mg/kg
Procedure: as §1, with “2,4-D, isolated and purified from Chloranthus spicatus (purity≥98%), was purchased from BOC Science (Shirley, NY). Colchicine (CLC) (purity≥96%) and dexamethasone (DEX) (purity≥98%) were purchased from Sigma. Mice” for “Mice”
Preparation of monosodium urate crystal (MSU). MSU crystals were prepared as described previously (Ruiz-Miyazawa et al., 2017). Briefly, 800 mg of monosodium urate was dissolved in 155 ml of boiling milli-Q water containing 2N NaOH. After pH adjustment to 8.9, the solution was cooled gradually by stirring at room temperature and crystallized overnight at 4° C. Crystals were collected, and centrifuged at 3,000×g for 2 min at 4° C. The crystals were evaporated and sterilized by heating at 180° C. for 2 h and stored in a sterile environment until use. The load of endotoxin present in the MSU crystals was determined using a ToxinSensor^TM Single Test Kit (GenScript).
as §2
Evaluation of Knee Joint Edema. Knee joint edema was determined with a caliper (Mitutoyo) before (zero time), and after the intra-articular injection with MSU at the times indicated. Knee joint edema was determined for each mouse by the difference between the time points indicated on figures and the zero time (Ruiz-Miyazawa et al, 2017). The edema value is represented as Amm/joint.
Statistical Analysis. Data were analyzed using GraphPad Prism statistical software (GraphPad Software, Inc., United States-500.288, version 5.0). Results are presented as means±SEM or SD of measurements made on 6 mice per group, with statistical significance determined by two-way ANOVA, comparing each group to the control (“Model”) group. For in vitro experiments, microassays were performed in quadruplicate. p<0.05 was considered significant (*p<0.05, **p<0.01, ***p<0.001).

[8] = tested on: IL-23; test: IL-23 production (ELISA) in LPS-stimulated THP-1 cells, 2,4-D versus other chalcones, Example 2; type: cell-based, human; details: LPS-stimulated THP-1, 24 h
Text: Molecules tested. Natural 2,4-D, isolated and purified from Chloranthus spicatus (purity HPLC≥98%, Cat. No.: 129742-43-2), was purchased from BOC Science (Shirley, NY). Synthetic 2,4-D (purity HPLC≥98%) was obtained from YIWEI Biotech (Shanghai, China). 2′-hydroxychalcone (2′-HC, purity HPLC≥98%, Cat. No.: 42224-53-3), 4-hydroxychlcone (4-HC, purity HPLC≥98%, Cat. No.: 20426-12-4), 2′,2-dihydroxychalcone (2′,2-DHC, purity HPLC≥98%, Cat. No.: IDF00045_ALDRICH), 2′,3-dihydroxychalcone (2′,3-DHC, purity HPLC≥98%, Cat No.: IDF00047_ALDRICH), 2′,4-dihydroxychalcone (2′,4-DHC, purity HPLC≥98%, Cat. No.: PH011685_ALDRICH), 2′,5′-dihydroxychalcone (2′,5′-DHC, purity HPLC≥98%, No.: IDF00046-1G), and 2′,4′,4-trihydroxychalcone (2′,4′4-THC, purity HPLC≥98%, No.: 38986_SIAL) were purchased from Sigma. 2′,4′-dihydroxychalcone (2′,4′-DHC, purity HPLC≥98%, Cat. No. AB151736) was purchased from abcr GmbH (Karlsruhe, Germany). Isobavachalcone (IBC), 4′-hydroxy-2′6′-dimethoxychalcone (HMC), 2-trifluoromethyl-2′-methoxychalcone (TFM) and Hydroxysafflor yellow A (HYA) were also tested.
Cell culture. THP-1 cells were cultured in RPMI 1640 culture medium (Gibco) supplemented with 10% fetal bovine serum (FBS; Gibco, UK.), 0.05 mM 2-mercaptoethanol, and 1% penicillin/streptomycin. Cells were used in exponential growth phase, with culture medium being replaced with fresh medium 1 day prior to the experiment. The following day, THP-1 cells were plated into 24-well culture plates with a cell density about 800,000 cells/mL and 2 mL per well. 10 ng/mL LPS was used to stimulate the THP-1 cells. RPMI 1640 medium containing 10% FBS and 1% P/S was used as a normal control (NC). 10 mM stock solutions of compounds in DMSO were diluted to 20 μM with complete culture medium just before use. Experiments were performed in quadruplicate.
Enzyme linked immune-sorbent assay (ELISA). At 24 hours, after centrifugation at 300 g for 10 min., 0.5 mL of supernatant was collected and stored at −80° C. until use. IL-23 levels were determined in culture supernatants as described in Example 1.

[9] = LPS-stimulated THP-1, Example 8

## COc1cc(O)c(OC)c(O)c1C(=O)/C=C/c1ccccc1 [(E) isomer, 2′,4′-dihydroxy-3′,6′-dimethoxychalcone]
[1]
  activity of (E) isomer relative to (Z) isomer: 5 fold
[1]; LPS-stimulated THP-1 cell culture
  inhibition of IL-23, (E) isomer compared with (Z) isomer: greater

## CC(=O)Oc1ccccc1C(=O)O [Aspirin, reference compound]
[1]; [9]
  change of IL-23 production/release in supernatant: no significant change

## COc1cc2c(c(OC)c1OC)-c1ccc(OC)c(=O)cc1[C@@H](NC(C)=O)CC2 [CLC, Colchicine]
[2]
  decrease of TNF-alpha in knee joint tissue: no effect
[3]
  reduction of MSU-induced leukocyte recruitment: 1.6 fold
[4]
  decrease of IL-1ß in knee joint tissue: no effect
[5]
  increase of the expression of IL-10 in knee joint tissue: 1.5 fold
[6]
  decrease of IL-6 in knee joint tissue: no effect
[7]
  reduction of MSU-induced knee joint edema: 32.6%

## COc1cc(O)cc(OC)c1C(=O)C=Cc1ccccc1 [HMC, 4′-hydroxy-2′6′-dimethoxychalcone]
[8]
  inhibition of IL-23 production: do not inhibit

## CC(C)=CCc1c(O)ccc(C(=O)/C=C/c2ccc(O)cc2)c1O [IBC, Isobavachalcone]
[8]
  inhibition of IL-23 production: do not inhibit

## CC(C)Cc1ccc(C(C)C(=O)O)cc1 (centres unmarked) [Ibuprofen, reference compound]
[1]; [9]
  reduction of IL-23 release in supernatant: 20-25%

## COc1cc(O)c(OC)c(O)c1C(=O)/C=C/c1ccccc1 [naturally isolated 2,4-D, 2′,4′-dihydroxy-3′,6′-dimethoxychalcone]
[8]; Homo sapiens, read-out: IC50 of inhibition of IL-23
  IC50: ~2.1 µM

## Hydroxysafflor yellow A [HYA]
[8]
  inhibition of IL-23 production: do not inhibit
